Consider four molecules from PMC3288743 (Bioorganic & medicinal chemistry letters, 2012).

Test [1] deals with T1, haspin (Homo sapiens, UniProt Q8TF76).
T1 sequence (Q8TF76 1-798): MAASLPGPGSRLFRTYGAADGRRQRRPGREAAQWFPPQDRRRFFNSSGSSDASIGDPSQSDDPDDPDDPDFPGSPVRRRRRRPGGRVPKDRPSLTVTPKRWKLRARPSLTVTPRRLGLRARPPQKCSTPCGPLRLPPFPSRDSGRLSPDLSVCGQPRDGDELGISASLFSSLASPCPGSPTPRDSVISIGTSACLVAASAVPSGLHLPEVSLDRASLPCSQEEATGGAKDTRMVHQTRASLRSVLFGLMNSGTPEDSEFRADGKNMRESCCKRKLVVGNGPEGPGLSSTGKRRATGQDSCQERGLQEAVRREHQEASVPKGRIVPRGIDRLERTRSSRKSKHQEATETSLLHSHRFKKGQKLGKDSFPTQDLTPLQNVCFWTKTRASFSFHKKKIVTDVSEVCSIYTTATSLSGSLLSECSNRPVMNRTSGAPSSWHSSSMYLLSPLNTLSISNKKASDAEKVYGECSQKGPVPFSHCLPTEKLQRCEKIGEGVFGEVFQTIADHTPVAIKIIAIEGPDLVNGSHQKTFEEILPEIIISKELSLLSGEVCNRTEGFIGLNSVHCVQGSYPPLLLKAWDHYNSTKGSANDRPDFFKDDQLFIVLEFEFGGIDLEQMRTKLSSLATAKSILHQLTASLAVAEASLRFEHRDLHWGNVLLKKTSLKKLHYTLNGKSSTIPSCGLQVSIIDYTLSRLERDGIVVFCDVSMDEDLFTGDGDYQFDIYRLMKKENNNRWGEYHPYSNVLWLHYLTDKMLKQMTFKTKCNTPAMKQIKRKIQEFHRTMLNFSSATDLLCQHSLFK
Nature of the test: TR-FRET haspin kinase inhibition assay. Type of test: biochemical.

Another test concerns mouse xenograft model. As to conditions: cited from earlier work.
A further test has as its target CaMK2b (Homo sapiens, UniProt Q13554). Nature of the test: kinase panel profiling. In kind it is biochemical. As to conditions: read-out: inhibition of CaMK2b.
A further test addresses CaMK2d (Homo sapiens, UniProt Q13557). Nature of the test: kinase panel profiling. Type of test: biochemical. As to conditions: read-out: inhibition of CaMK2d.
The next test has as its target CDK7-CycH-Mat1 (Homo sapiens, UniProt P50613). In words: kinase panel profiling. In kind it is biochemical. As to conditions: read-out: inhibition of CDK7-CycH-Mat1.
Another test has as its target T2, cGK2 (Homo sapiens, UniProt Q13237).
T2 sequence (Q13237 1-762): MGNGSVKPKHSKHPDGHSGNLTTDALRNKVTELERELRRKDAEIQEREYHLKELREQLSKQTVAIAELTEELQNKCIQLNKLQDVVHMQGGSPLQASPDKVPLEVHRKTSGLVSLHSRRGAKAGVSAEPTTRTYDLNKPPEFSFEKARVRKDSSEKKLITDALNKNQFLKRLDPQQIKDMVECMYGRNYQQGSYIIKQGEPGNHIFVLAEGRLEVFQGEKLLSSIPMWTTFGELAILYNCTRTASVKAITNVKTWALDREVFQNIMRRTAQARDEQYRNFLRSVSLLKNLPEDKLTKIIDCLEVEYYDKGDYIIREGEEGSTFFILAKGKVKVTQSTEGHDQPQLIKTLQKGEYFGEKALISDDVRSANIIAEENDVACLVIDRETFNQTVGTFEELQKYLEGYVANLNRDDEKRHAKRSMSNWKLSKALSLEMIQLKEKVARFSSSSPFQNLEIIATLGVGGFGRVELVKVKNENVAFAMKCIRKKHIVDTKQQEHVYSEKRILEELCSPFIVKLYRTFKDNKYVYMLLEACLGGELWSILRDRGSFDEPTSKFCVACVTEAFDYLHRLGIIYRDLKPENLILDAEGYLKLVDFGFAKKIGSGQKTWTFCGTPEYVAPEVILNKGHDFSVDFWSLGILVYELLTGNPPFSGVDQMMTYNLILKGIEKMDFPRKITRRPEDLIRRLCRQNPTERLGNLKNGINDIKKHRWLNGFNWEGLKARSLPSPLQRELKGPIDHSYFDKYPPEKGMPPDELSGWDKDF
Nature of the test: kinase panel profiling. In kind it is biochemical. As to conditions: read-out: inhibition of cGK2.

The next test deals with CK1d (Homo sapiens, UniProt P48730). In words: kinase panel profiling. In kind it is biochemical. As to conditions: read-out: inhibition of CK1d.
Sequence of CK1d (P48730 whole entry): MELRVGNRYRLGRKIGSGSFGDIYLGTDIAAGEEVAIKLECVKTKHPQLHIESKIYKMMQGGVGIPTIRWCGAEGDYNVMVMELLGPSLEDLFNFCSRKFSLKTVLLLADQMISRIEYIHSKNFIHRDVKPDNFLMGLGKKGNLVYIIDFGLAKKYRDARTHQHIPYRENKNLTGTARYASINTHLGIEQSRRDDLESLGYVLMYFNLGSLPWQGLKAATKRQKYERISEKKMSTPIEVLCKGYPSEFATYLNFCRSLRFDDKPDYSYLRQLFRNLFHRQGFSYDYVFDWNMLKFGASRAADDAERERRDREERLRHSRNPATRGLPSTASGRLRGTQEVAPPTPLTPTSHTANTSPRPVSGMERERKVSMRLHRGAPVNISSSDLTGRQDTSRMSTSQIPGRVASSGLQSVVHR
Another test has as its target CLK1 (Homo sapiens, UniProt P49759). In words: kinase panel profiling. In kind it is biochemical. As to conditions: read-out: inhibition of CLK1.
The target in another test is CLK2 (Homo sapiens, UniProt P49760). Nature of the test: kinase panel profiling. In kind it is biochemical. As to conditions: read-out: inhibition of CLK2.
Sequence of CLK2 (P49760 whole entry, species assumed): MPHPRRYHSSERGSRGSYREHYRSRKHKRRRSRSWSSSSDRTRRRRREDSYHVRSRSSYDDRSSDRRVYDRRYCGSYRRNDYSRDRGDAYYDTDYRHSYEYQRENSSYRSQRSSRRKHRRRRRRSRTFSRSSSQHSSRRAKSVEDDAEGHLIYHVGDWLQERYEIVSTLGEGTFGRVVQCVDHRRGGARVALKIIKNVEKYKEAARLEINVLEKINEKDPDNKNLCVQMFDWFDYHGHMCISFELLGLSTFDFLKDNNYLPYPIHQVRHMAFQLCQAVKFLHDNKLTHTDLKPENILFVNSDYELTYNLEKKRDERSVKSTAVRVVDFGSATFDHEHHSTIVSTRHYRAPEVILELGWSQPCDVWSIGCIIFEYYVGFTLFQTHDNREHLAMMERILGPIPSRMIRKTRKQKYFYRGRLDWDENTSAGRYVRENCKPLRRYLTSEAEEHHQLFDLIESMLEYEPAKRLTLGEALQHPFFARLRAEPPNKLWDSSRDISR
In a further test the target is DYRK1A (Homo sapiens, UniProt Q13627). Nature of the test: kinase panel profiling. In kind it is biochemical. As to conditions: read-out: inhibition of DYRK1A.
The target of the next test is DYRK1B (Homo sapiens, UniProt Q9Y463). Nature of the test: kinase panel profiling. Type of test: biochemical. As to conditions: read-out: inhibition of DYRK1B.
Sequence of DYRK1B (Q9Y463 whole entry, species assumed): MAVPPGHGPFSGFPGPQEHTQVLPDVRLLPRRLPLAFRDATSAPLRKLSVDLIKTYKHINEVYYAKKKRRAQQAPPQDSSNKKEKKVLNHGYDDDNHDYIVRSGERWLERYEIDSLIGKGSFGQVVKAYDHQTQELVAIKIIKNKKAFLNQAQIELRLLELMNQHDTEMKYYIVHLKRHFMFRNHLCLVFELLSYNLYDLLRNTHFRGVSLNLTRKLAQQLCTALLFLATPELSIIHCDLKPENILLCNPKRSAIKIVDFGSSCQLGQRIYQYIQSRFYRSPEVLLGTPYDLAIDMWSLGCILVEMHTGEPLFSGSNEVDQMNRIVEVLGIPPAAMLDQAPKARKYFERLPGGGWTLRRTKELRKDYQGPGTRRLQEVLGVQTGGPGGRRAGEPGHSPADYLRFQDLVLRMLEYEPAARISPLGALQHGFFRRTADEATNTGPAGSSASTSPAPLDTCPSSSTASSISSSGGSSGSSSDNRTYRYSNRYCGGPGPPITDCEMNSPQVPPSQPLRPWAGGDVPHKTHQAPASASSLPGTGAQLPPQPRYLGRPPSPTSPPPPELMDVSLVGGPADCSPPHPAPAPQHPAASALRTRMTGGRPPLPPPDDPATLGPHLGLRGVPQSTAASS
The target in another test is T3, DYRK3 (Homo sapiens, UniProt O43781).
T3 sequence (O43781 1-588): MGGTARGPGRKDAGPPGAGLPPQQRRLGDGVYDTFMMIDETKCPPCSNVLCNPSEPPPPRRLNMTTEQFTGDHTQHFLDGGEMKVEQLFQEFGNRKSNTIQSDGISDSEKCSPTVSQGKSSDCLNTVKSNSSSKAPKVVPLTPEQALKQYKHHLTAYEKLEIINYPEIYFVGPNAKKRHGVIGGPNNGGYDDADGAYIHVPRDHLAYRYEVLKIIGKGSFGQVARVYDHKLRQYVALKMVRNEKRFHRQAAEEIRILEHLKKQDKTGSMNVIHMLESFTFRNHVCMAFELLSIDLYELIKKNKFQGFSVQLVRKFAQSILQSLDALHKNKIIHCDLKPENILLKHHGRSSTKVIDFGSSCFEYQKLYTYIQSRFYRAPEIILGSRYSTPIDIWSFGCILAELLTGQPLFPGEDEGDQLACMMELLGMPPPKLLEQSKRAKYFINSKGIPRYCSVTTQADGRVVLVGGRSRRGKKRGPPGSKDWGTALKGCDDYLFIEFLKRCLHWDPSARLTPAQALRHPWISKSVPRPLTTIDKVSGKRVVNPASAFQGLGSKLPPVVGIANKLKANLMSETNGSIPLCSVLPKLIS
In words: kinase panel profiling. Type of test: biochemical. As to conditions: read-out: inhibition of DYRK3.

Another test has as its target PASK (Homo sapiens, UniProt Q96RG2). Nature of the test: kinase panel profiling. In kind it is biochemical. As to conditions: read-out: inhibition of PASK.
Another test has as its target PIM1 (Homo sapiens, UniProt P11309). In words: kinase panel profiling. Type of test: biochemical. As to conditions: read-out: inhibition of PIM1.
The target of another test is T4, PKD3 (Homo sapiens, UniProt O94806).
T4 sequence (O94806 1-890): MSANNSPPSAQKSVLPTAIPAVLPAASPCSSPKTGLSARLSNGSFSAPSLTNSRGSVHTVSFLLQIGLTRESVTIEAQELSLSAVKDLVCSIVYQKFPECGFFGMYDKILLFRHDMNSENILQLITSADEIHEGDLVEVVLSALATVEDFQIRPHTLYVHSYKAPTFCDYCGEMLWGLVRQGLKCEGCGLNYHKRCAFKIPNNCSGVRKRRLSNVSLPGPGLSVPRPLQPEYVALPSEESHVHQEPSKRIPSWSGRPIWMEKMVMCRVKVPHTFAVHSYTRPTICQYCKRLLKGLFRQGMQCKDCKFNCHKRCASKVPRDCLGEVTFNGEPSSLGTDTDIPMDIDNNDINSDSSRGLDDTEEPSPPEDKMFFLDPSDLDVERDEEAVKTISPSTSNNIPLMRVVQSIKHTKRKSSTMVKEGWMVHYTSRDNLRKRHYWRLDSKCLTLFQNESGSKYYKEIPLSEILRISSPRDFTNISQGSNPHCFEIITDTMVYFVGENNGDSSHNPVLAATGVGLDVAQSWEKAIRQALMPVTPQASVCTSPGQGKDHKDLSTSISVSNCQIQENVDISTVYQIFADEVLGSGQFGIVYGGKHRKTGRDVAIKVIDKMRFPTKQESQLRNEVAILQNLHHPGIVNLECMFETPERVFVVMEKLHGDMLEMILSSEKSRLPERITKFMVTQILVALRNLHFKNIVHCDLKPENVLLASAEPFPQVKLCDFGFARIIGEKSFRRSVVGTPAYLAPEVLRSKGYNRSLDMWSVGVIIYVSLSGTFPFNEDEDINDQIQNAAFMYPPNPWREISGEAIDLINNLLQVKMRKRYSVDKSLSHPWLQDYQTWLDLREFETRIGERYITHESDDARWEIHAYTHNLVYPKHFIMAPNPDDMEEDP
In words: kinase panel profiling. In kind it is biochemical. As to conditions: read-out: inhibition of PKD3.

Test [2] addresses T1, haspin. In words: biochemical. As to conditions: read-out: inhibition of haspin.

Molecules are shown by their SMILES.

Sequence of CaMK2b (Q13554 whole entry, species assumed): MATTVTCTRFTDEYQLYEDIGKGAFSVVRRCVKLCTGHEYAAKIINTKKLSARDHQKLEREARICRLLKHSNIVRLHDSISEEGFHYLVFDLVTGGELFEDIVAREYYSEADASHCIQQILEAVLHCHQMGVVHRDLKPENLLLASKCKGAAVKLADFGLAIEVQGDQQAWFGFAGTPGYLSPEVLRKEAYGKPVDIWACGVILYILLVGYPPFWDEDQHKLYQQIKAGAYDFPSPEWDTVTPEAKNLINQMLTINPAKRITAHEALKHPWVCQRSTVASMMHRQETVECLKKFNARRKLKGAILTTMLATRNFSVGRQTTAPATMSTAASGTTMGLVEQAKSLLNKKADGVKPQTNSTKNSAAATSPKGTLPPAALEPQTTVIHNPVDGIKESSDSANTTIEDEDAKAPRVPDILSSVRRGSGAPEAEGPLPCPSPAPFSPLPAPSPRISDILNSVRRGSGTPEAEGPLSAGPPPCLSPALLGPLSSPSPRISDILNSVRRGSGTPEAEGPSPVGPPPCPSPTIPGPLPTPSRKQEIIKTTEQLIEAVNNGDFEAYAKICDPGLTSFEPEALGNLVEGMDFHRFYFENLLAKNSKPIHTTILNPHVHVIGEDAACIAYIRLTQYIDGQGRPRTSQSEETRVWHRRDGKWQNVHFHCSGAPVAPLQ
Sequence of PIM1 (P11309 whole entry, species assumed): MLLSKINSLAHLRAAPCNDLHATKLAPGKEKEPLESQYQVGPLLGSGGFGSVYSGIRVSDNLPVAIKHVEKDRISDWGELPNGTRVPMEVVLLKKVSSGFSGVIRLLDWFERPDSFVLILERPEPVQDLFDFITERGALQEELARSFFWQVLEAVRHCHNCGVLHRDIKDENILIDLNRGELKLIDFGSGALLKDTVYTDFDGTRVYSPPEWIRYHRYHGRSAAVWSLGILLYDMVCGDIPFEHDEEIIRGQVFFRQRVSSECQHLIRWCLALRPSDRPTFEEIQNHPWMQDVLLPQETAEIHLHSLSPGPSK
Sequence of CLK1 (P49759 whole entry): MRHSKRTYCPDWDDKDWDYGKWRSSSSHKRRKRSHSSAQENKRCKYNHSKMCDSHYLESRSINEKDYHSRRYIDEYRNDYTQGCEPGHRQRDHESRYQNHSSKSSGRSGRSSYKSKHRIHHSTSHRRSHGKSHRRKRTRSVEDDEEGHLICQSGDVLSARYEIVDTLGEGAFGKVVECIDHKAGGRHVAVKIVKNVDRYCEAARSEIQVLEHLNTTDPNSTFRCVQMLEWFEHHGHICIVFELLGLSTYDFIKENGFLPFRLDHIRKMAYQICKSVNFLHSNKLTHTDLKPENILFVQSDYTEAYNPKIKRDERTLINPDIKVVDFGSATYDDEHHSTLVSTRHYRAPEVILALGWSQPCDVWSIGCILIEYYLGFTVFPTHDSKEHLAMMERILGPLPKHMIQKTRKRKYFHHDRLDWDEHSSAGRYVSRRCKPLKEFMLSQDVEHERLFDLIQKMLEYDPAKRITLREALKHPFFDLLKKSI
Sequence of PASK (Q96RG2 whole entry): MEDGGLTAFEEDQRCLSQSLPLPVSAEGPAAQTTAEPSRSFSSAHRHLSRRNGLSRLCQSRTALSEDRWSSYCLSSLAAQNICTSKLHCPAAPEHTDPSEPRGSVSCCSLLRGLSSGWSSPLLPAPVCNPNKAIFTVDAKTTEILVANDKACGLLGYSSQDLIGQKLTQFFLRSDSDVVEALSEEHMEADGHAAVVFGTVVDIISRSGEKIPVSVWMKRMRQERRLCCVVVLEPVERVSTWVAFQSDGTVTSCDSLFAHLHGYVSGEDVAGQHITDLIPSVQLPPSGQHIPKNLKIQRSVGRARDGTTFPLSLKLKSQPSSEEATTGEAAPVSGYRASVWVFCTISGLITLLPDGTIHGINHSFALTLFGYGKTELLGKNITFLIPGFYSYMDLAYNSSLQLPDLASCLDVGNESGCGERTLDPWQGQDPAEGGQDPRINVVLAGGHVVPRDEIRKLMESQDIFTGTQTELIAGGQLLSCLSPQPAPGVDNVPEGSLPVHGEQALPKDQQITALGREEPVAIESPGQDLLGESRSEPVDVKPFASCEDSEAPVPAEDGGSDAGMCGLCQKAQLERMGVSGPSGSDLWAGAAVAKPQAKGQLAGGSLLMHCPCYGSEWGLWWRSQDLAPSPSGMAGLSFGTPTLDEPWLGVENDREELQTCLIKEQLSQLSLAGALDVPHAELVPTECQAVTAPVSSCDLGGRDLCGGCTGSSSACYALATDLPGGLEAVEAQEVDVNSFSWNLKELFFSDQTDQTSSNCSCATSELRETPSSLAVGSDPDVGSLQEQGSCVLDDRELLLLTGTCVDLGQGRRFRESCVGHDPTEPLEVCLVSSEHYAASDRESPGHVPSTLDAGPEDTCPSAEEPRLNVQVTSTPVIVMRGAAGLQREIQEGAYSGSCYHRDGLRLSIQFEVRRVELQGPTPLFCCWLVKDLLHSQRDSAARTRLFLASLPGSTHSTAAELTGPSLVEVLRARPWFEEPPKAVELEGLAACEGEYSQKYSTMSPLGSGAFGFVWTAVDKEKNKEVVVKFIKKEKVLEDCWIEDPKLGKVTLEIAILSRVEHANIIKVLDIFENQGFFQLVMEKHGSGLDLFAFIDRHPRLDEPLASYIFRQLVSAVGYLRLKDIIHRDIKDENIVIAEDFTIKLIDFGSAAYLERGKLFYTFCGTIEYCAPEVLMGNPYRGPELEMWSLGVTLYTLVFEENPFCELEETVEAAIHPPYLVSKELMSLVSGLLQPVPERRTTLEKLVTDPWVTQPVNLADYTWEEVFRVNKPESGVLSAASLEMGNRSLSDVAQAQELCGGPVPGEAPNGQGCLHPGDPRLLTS
Sequence of CaMK2d (Q13557 whole entry, species assumed): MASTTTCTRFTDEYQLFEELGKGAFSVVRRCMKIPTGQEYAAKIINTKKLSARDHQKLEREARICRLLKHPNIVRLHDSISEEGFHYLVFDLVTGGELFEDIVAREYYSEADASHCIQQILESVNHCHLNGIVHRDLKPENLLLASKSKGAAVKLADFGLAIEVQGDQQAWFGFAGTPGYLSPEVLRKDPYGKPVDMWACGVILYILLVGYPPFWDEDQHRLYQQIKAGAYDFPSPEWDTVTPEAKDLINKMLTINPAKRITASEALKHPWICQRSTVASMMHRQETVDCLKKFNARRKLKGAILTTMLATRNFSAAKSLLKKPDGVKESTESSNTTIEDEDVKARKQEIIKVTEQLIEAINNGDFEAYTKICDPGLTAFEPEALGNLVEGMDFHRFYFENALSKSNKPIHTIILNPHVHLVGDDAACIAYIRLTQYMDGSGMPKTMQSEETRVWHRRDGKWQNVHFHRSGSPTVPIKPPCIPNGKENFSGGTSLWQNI

As to `Cc1nccc2c1[nH]c1cc(OCCCN)ccc12` [7a], the “haspin inhibition at 10 µM” value on haspin [1] is “inactive”.
In the case of `CCCNc1ccc2ncc(-c3ccc4[nH]ncc4c3)n2n1` [CHR-6494], the anti-tumor activity entry with mouse xenograft model was “displayed anti-tumor activity”.
In the case of `Cc1nccc2c1[nH]c1cc(OCCCCN)ccc12` [7b], on haspin [1], the “haspin inhibition at 10 µM” value was “inactive”.
Consider `COc1ccc2c3ccnc(C(F)(F)F)c3n(CCCCN)c2c1` [compound 42], for which the inhibition at 10 µM on CaMK2b, at CaMK2d, on CDK7-CycH-Mat1, at cGK2, on CK1d and on CLK1 was no less than 90% each time. Besides, the inhibition at 10 µM on CLK2, at DYRK1A, on DYRK1B, on DYRK3, on PASK and on PIM1 was no less than 90% in each case. In addition, the inhibition at 10 µM on PKD3 and at haspin [2] was no less than 90% in each case.

Usually inhibition stands for how much of the control response was suppressed.
